# Data published in patent US5985824A, “Methods and compositions for treating cystic fibrosis” (priority 1997, dated 1999).
# Entries after “also recorded” stand apart in the source; their conditions may differ.
# Key:
# [1] = test system: ΔF508-CFTR (C127-ΔF508-low cells); test: immunoprecipitation analysis for mature band C-CFTR in C127-ΔF508-low cells; type: cell-based; settings: DSG 10 to 100 μg/ml, 48 to 72 h
# Source text: Detailed procedures for preparing cell lysates, immunoprecipitation, phosphorylation of CFTR using protein kinase A and [γ^32 P]ATP, and polyacrylamide gel electrophoresis have all been described previously (Cheng et al., (1995), supra.; Marshall et al., supra.).
# C127-ΔF508-low (mouse mammary tumor) is a recombinant cell line stably transfected with the cDNA encoding the mutant ΔF508-CFTR (Cheng et al. (1995), supra.; Marshall et al. (1994), J. Biol. Chem. 269: 2987-2995). […] C127-mock is a cell line that has been stably transfected with the backbone of the expression vector used to generate C127-ΔF508-low (Cheng et al. (1995), supra.). LLCPK1 -ΔF508 (pig kidney epithelial) is a recombinant cell line stably expressing low levels of the mutant ΔF508-CFTR protein (Marshall et al., supra.). The details of the generation, characterization and routine propagation of these cell lines has been described (Cheng et al. (1995), supra.; Marshall et al., supra.).
# To test whether treatment with DSG may interfere with the ability of hsp70 to retain ΔF508-CFTR in the ER, recombinant C127 cells expressing ΔF508-CFTR were seeded onto glass coverslips and were exposed to DSG (10 to 100 μg/ml) (Bristol Myers Squibb, Seattle, Wa.) for 48 to 72 h. Analysis for evidence of mature band C-CFTR (Cheng et al. (1990), supra.) which would be indicative of processing of ΔF508-CFTR in the Golgi was performed. […]
# ΔF508-CFTR (CFT1 cells) = test: SPQ assay, cAMP-stimulated Cl- channel activity, CFT1 cells; type: cell-based, human
# Description: The cAMP-dependent CFTR Cl^- channel activity was assessed using the halide-sensitive fluorophore 6-methoxy-N-(3-sulfopropyl)-quinolinium (SPQ) essentially as described previously (Cheng et al., (1995), supra.; Marshall et al., supra.). Briefly, the cells were treated with different amounts of DSG for the times specified. At the end of the treatment period, the cells were loaded with SPQ by hypotonic shock for 4 min at room temperature. SPQ fluorescence initially was quenched by incubating the cells for up to 30 min in a NaI buffer (135 mM NaI, 2.4 mM K2 HPO4, 0.6 mM KH2 PO4, 1 mM MgSO4, 1 mM CaSO4, 10 mM dextrose, and 10 mM N-2 hydroxyethylpiperazine-N'2-ethanesulfonic acid, pH 7.4). After measuring the baseline fluorescence (Fo) for 2 min., the NaI solution was replaced with one containing 135 mM NaNO3, and fluorescence was measured for another 16 min. […]
# An increase in halide permeability is reflected by a more rapid increase in SPQ fluorescence. […] Differences in absolute levels reflect quantitative differences between groups in SPQ loading, size of cells, or number of cells studied. The data are presented as means± SE of fluorescence at time t (Ft) minus the baseline fluorescence (Fo, the average fluorescence measured in the presence of I^- for 2 min. before ion substitution) and are representative of results obtained under each condition. […]
smiles,measurement,setting,value
"N=C(N)NCCCCCCC(=O)NC(O)C(=O)NCCCCNCCCN (centres unmarked) [DSG, deoxyspergualin]",mature band C form of CFTR,[1],the presence of any mature band C-form of CFTR could not be demonstrated; also recorded: no discernible evidence of the mature band C form of CFTR
same,"cAMP-stimulated Cl- channel activity, in words",ΔF508-CFTR (CFT1 cells),very similar results
